Test results reported in ChEMBL document CHEMBL3046244, “Efficient synthesis of piperazine-2,6-dione and 4-(1H-indole-2-carbonyl)piperazine-2,6-dione derivatives and their evaluation for anticancer activity” (2013).

Assays:
Format in all cases: functional
NCI-H522 = assay: Growth inhibition of Homo sapiens (human) NCI-H522 cells at 10 uM after 48 hr by SRB assay; details: NCI-H522, 48 h, read-out: GI
PA-1 = assay: Growth inhibition of Homo sapiens (human) PA1 cells at 10 uM after 48 hr by SRB assay; details: PA-1, 48 h, read-out: GI
HepG2 = assay: Growth inhibition of Homo sapiens (human) HepG2 cells at 10 uM after 48 hr by SRB assay; details: HepG2, 48 h, read-out: GI
HCT-15 = assay: Growth inhibition of Homo sapiens (human) HCT15 cells at 10 uM after 48 hr by SRB assay; details: HCT-15, 48 h, read-out: GI
T47D = assay: Growth inhibition of Homo sapiens (human) T47D cells at 10 uM after 48 hr by SRB assay; details: read-out: GI

| Compound | inhibition of growth at 10 µM (NCI-H522) [%] | inhibition of growth at 10 µM (PA-1) [%] | inhibition of growth at 10 µM (HepG2) [%] | inhibition of growth at 10 µM (HCT-15) [%] | inhibition of growth at 10 µM (T47D) [%] |
| --- | --- | --- | --- | --- | --- |
| O=C1CNCC(=O)N1CCN1CCOCC1 | 9 | 37 | 38 | 4 | 1 |
| O=C(c1cc2ccccc2[nH]1)N1CC(=O)N(Cc2ccco2)C(=O)C1 | 15 | 23 | 36 | 24 | 21 |
| O=C1CNCC(=O)N1CCc1cccs1 | 21 | 15 | 24 | 25 | 16 |
| O=C(c1cc2ccccc2[nH]1)N1CC(=O)N(CCN2CCCC2)C(=O)C1 | 31 | 29 | 30 | 17 | 16 |
| O=C1CNCC(=O)N1Cc1cccs1 | 15 | 18 | 29 | 4 | 8 |
| O=C(c1cc2ccccc2[nH]1)N1CC(=O)N(Cc2cccs2)C(=O)C1 | 0 | 24 | 45 | 15 | 6 |
| O=C1CNCC(=O)N1CCCn1ccnc1 | 8 | 23 | 13 | 32 | 8 |
| O=C1CNCC(=O)N1CCN1CCCC1 | 0 | 26 | 18 | 49 | 1 |
| O=C(c1cc2ccccc2[nH]1)N1CC(=O)N(CCc2cccs2)C(=O)C1 | 14 | 11 | 19 | 4 | 9 |
| O=C(c1cc2ccccc2[nH]1)N1CC(=O)N(Cc2ccncc2)C(=O)C1 | 5 | 42 | 20 | 38 | 21 |
| O=C1CNCC(=O)N1Cc1ccco1 | 7 | 26 | 21 | 30 | 4 |
| O=C1CCCN1CCCN1C(=O)CNCC1=O | 21 | 25 | 40 | 19 | 21 |
| O=C1CNCC(=O)N1Cc1cccnc1 | 4 | 20 | 21 | 20 | 8 |
| O=C(c1cc2ccccc2[nH]1)N1CC(=O)N(CCN2CCOCC2)C(=O)C1 | 8 | 18 | 3 | 7 | 16 |
| C[C@@H]1C[C@@H]([C@H](O)CC2CC(=O)NC(=O)C2)C(=O)[C@@H](C)C1 [CYCLOHEXIMIDE] | 15 | 34 | 26 | 16 | 11 |
| O=C(c1cc2ccccc2[nH]1)N1CC(=O)N(C2CCCCC2)C(=O)C1 | 6 | 40 | 25 | 30 | 7 |
| O=C(c1cc2ccccc2[nH]1)N1CC(=O)N(Cc2cccnc2)C(=O)C1 | 4 | 13 | 17 | 14 | 12 |
| O=C1CCCN1CCCN1C(=O)CN(C(=O)c2cc3ccccc3[nH]2)CC1=O | 8 | 8 | 11 | 27 | 14 |
| O=C(c1cc2ccccc2[nH]1)N1CC(=O)N(CCCn2ccnc2)C(=O)C1 | 0 | 17 | 34 | 7 | 0 |
| O=C1CNCC(=O)N1Cc1ccncc1 | 8 | 27 | 25 | 33 | 4 |
| O=C(c1cc2ccccc2[nH]1)N1CC(=O)N(Cc2ccccn2)C(=O)C1 | 19 | 23 | 34 | 2 | 20 |
| O=P1(N(CCCl)CCCl)NCCCO1 (stereo not given) [CYCLOPHOSPHAMIDE ANHYDROUS] | 11 | 12 | 18 | 12 | 26 |
| O=C1CNCC(=O)N1C1CCCCC1 | 11 | 24 | 38 | 7 | 15 |
| O=c1[nH]cc(F)c(=O)[nH]1 [FLUOROURACIL] | 24 | 22 | 18 | 19 | 15 |
| O=C1CNCC(=O)N1Cc1ccccn1 | 8 | 17 | 31 | 1 | 16 |
